Experimental data from patent US20220031684A1, “PROPHYLACTIC EFFICACY OF SEROTONIN 4 RECEPTOR AGONISTS AGAINST STRESS” (THE TRUSTEES OF COLUMBIA UNIVERSITY IN THE CITY OF NEW YORK, priority 2019, published 2022).

Experiments:
CA3 pyramidal cells = test: Whole-cell voltage clamp recordings of spontaneous EPSCs in CA3 slices; assay type: cell-based, mice; details: NBQX 20 μM added to bath
Procedure: (§1) This chronic CORT elevation dysregulates the hypothalamic-pituitary-adrenal axis (HPA) in a manner similar to that observed in clinical depression. The dose and duration of CORT treatment was selected based on previous studies. CORT (35 μg/ml, equivalent to about 5 mg/kg/day) dissolved in 0.45% hydroxypropyl-o-cyclodextrin (0-CD) or vehicle (VEH) (0.45% j-CD) was available ad libitum in the drinking water in opaque bottles to protect it from light. VEH- and CORT-treated water was changed every 3 days to prevent possible degradation. Contextual Fear Conditioning (CFC): A 3-shock CFC procedure was administered as previously published. Briefly, mice were placed into context A and administered 3 2-s shocks (0.75 mA) at 180 s, 240 s or 300 s following placement into context A. Mice were removed from the context 15 s following the termination of shock (at 317 s). For context retrieval, mice were placed back into context A for 300 s. Electrophysiology: Electrophysiology was conducted as previously described. Statistical Analysis: Results from data analyses are expressed as means±SEM. Alpha was set to 0.05 for all analyses. Data were analyzed using GraphPad Prism v7.0 or v8.0. For all experiments, unless otherwise noted, one- or two-way ANOVAs with repeated-measures were applied to the data as appropriate. Significant main effects and/or interactions were followed by Fisher's PLSD post hoc analysis or unpaired t-tests. Drugs: All drugs were prepared in physiological saline and all injections were administered intraperitoneally (i.p.) in volumes of 0.1 cc per […] body weight unless otherwise noted. Fluoxetine hydrochloride (Flx): Flx (BioTrend Chemicals AG, BG197, Zurich, Germany) was administered in the drinking water (18 mg/kg/day) for 3 weeks before the start of CORT. […] (R,S)-ketamine (K): (R,S)-ketamine (Ketaset III, Ketamine HCl injection, Fort Dodge Animal Health, Fort Dodge, Iowa) was administered in a single dose at 30 mg/kg of body weight 1 week before the start of CFC. […] PF-04995274: PF-04995274 (Sigma, Catalog No. 1331782-27-4, St. Louis, Mo.) was administered a single dose at 3 or 10 mg/kg of body weight 1 week before the start of CFC. PF-04995274 was dissolved in saline using an ultrasonic homogenizer (BioLogics, Model 3000, Manassas, Va.). Osmotic minipump implantation: ALZET osmotic minipumps (Model 2004, […], 28 days) were implanted subcutaneously under isoflurane anesthesia as previously described [S2]. Osmotic minipumps were rotated under the skin two to three times per week. Behavioral Assays: All experiments were approved by the Institutional Animal Care and Use Committee (IACUC) at the New York Psychiatric Institute (NYSPI). Elevated Plus Maze (EPM): Testing was performed as previously described [S3]. Briefly, the maze is a plus-cross-shaped apparatus consisting of four arms, two open and two enclosed by walls, linked by a central platform at a height of 50 cm from the floor. Mice were individually placed in the center of the maze facing an open arm and were allowed to explore the maze for 5 min. The time spent in and the number of entries into the open arms was used as an anxiety index. Videos were scored using ANY-maze behavior tracking software (Stoelting, Wood Dale, Ill.). Novelty-Suppressed Feeding: The NSF is a conflict test that elicits competing motivations: the drive to eat and the fear of venturing into the center of a brightly lit arena. The latency to feed is used as an index of anxiety-like behavior, because classical anxiolytic drugs decrease this measure. The NSF test was carried out during an 8 min period as previously described [S3]. Briefly, the testing apparatus consisted of a plastic box (50×50×20 cm), the floor of which was covered with approximately 2 cm of bedding. For 129S6/SvEv experiments, mice were food restricted for 12 h. For the C57BL/6N experiments, mice were food restricted for 24 h. […]

129S6/SvEv mice [1] = test: Forced swim test (FST) after CFC; assay type: in vivo
Procedure: as §1

129S6/SvEv mice [2] = test: 3-shock contextual fear conditioning (CFC); assay type: in vivo
Procedure: as §1

[3] = FIG. 4 cohort, Male, FIG. 4F, RMANOVA, Fisher's LSD
[4] = FIG. 4 cohort, Male, FIG. 4G, ANOVA, Fisher's LSD
[5] = FIG. 4 cohort, Male, FIG. 4C, RMANOVA, Fisher's LSD
[6] = FIG. 4 cohort, Male, FIG. 4D, ANOVA, Fisher's LSD

NS(=O)(=O)c1cccc2c1c([N+](=O)[O-])cc1nc(O)c(O)nc12 [NBQX, 2,3-dihydroxy-6-nitro-7-sulfamoyl-benzo[f]quinoxaline]
large bursts of EPSCs in saline-treated mice (CA3 pyramidal cells): completely blocked

OC1(CN2CCC(COc3noc4cccc(OC5CCOC5)c34)CC2)CCOCC1 (stereo not shown) [PF-04995274]
p, FST Day 2 Immobility Time (sec), PF04995274 (3 mg/kg) vs. PF04995274 (10 mg/kg) (129S6/SvEv mice [1]; [3]): 0.0941
p, FST Day 2 Immobility Time (sec), Saline vs. PF04995274 (3 mg/kg) (129S6/SvEv mice [1]; [3]): 0.1259
p, FST Day 2 Immobility Time (sec), Saline vs. PF04995274 (10 mg/kg) (129S6/SvEv mice [1]; [3]): 0.0023
p, FST Day 2 Immobility Time (min 3-6) (sec), Saline vs. PF04995274 (3 mg/kg) (129S6/SvEv mice [1]; [4]): 0.1050
p, FST Day 2 Immobility Time (min 3-6) (sec), Saline vs. PF04995274 (10 mg/kg) (129S6/SvEv mice [1]; [4]): 0.0027
immobility, FST day 1 (129S6/SvEv mice [1]; male 129S6/SvEv, (R,S)-ketamine 30, prucalopride 3 or 10, PF-04995274 3 or 10 mg/kg): comparable levels of immobility
immobility time, FST day 2 vs saline (129S6/SvEv mice [1]; male 129S6/SvEv, single injection 1 week before CFC, 10 mg/kg): decreased immobility time
p, CFC Re-exposure Freezing (%), PF04995274 (3 mg/kg) vs. PF04995274 (10 mg/kg) (129S6/SvEv mice [2]; [5]): 0.0619
p, CFC Re-exposure Freezing (%), Saline vs. PF04995274 (3 mg/kg) (129S6/SvEv mice [2]; [5]): 0.6871
p, CFC Re-exposure Freezing (%), Saline vs. PF04995274 (10 mg/kg) (129S6/SvEv mice [2]; [5]): 0.0255
p, CFC Re-exposure, PF04995274 (3 mg/kg) vs. PF04995274 (10 mg/kg) (129S6/SvEv mice [2]; [6]): 0.0619
p, CFC Re-exposure, Saline vs. PF04995274 (3 mg/kg) (129S6/SvEv mice [2]; [6]): 0.6871
p, CFC Re-exposure, Saline vs. PF04995274 (10 mg/kg) (129S6/SvEv mice [2]; [6]): 0.0255
freezing during CFC training (129S6/SvEv mice [2]; male 129S6/SvEv, (R,S)-ketamine 30, prucalopride 3 or 10, PF-04995274 3 or 10 mg/kg, 1 week before CFC, vs saline): comparable levels of freezing
freezing at re-exposure to the training context (learned fear) vs saline (129S6/SvEv mice [2]; male 129S6/SvEv, single i.p. injection 1 week before CFC, re-exposure 5 days later, 10 mg/kg): attenuated learned fear
